{
  "source": "paper PMC6698915",
  "about": "(Cancer chemotherapy and pharmacology, 2015)",
  "origin": "cited, not measured here",
  "tested_on": "patients with locally advanced (M0) head and neck cancer",
  "conditions": "with cisplatin and docetaxel 75 mg/m^2 q21 days, pegfilgrastim, previously untreated; cited from earlier work",
  "data": [
    {"compound": "CO[C@H]1C[C@@H]2CC[C@@H](C)[C@@](O)(O2)C(=O)C(=O)N2CCCC[C@H]2C(=O)O[C@H]([C@H](C)C[C@@H]2CC[C@@H](OCCO)[C@H](OC)C2)CC(=O)[C@H](C)/C=C(\\C)[C@@H](O)[C@@H](OC)C(=O)[C@H](C)C[C@H](C)/C=C/C=C/C=C/1C", "note": "[everolimus]", "values": [
      {"measurement": "escalation to full dose of daily everolimus", "result": "not possible to escalate to full dose of daily everolimus due to dose-limiting neutropenia"}
    ]}
  ]
}
